Test results from patent publication US20230233580A1, “USE OF OXYGENATED CHOLESTEROL SULFATES FOR CANCERS AND NON-CANCEROUS TRANSFORMATIONS RELATED TO EPSTEIN-BARR VIRUS” (priority 2020, published 2023).

Experiments:
[1] = system: 3 DNMTs and 9 other epigenetic enzymes; assay: Enzyme kinetic study of epigenetic enzymes; type: biochemical; conditions: for effect on enzymatic activities: controls
[2] = Metabolite profiling of plasma and feces, oral dose; type: in vivo, rats; conditions: oral 75 mg/kg
Description: Radiolabeled components in plasma and feces extracts were profiled and identified using radio-high performance liquid chromatography (HPLC) and high performance liquid chromatography/mass spectrometry (HPLC/MS) methods.

[3] = Plasma pharmacokinetics of radioactivity, intravenous dose; type: in vivo, male Sprague Dawley rats; conditions: single intravenous (bolus) dose 10 mg/kg, rats
Description: (§1) The objectives of this study were to determine the plasma pharmacokinetics of [4-^14C]-25HC3S-derived radioactivity in male Sprague Dawley rats, determine the routes of elimination and excretion mass balance of [4-^14C]-25HC3S-derived radioactivity in male Sprague Dawley rats, determine the tissue distribution and tissue pharmacokinetics of [4-^14C]-25HC3S-derived radioactivity using quantitative whole body autoradiography methods in male Sprague Dawley and Long Evans rats following a single intravenous (bolus) dose, and to provide plasma, urine, and fecal homogenate samples for metabolite profiling of [4-^14C]-25HC3S-derived radioactivity.
(§2) Nine male Sprague Dawley rats (Group 1) were designated for the pharmacokinetic phase, 3 male Sprague Dawley rats (Group 2) for the excretion mass balance phase, and 7 male Sprague Dawley rats (Group 3) and 9 male Long Evans rats (Group 4) for the tissue distribution phase. All animals received a single intravenous dose of [^14C]-25HC3S at 10 mg/kg and a target radioactivity of 225 pCi/kg. Blood samples were collected from all Group 1 animals at approximately 0.083, 0.25, 0.5, 1, 2, 4, 8, 12, 24, 48, and 72 hours post-dose. Urine and feces were collected from all Group 2 animals periodically through 168 hours post-dose. […] Following blood collection, animals were euthanized by CO2 inhalation and carcasses frozen in a dry ice/hexane bath for processing by quantitative whole body autoradiography. Whole blood, plasma, urine, feces, cage rinse, and cage wash were analyzed for total radioactivity by liquid scintillation counting.

[4] = Excretion mass balance, intravenous dose; type: in vivo, male Sprague Dawley rats; conditions: over 168 hours, intravenous 10 mg/kg, rats
Description: as §1
as §2, with “pCi/kg.” for “pCi/kg. Blood samples were collected from all Group 1 animals at approximately 0.083, 0.25, 0.5, 1, 2, 4, 8, 12, 24, 48, and 72 hours post-dose. Urine and feces were collected from all Group 2 animals periodically through 168 hours post-dose.”

[5] = Tissue distribution by quantitative whole body autoradiography, intravenous dose; type: in vivo, male Sprague Dawley rats; conditions: intravenous 10 mg/kg
Procedure: as §2, with “All animals received a single intravenous dose of [^14C]-25HC3S at 10 mg/kg and a target radioactivity of 225 pCi/kg.” left out

[6] = Tissue distribution by quantitative whole body autoradiography, intravenous dose, pigmented rats; type: in vivo, male Long Evans rats; conditions: intravenous 10 mg/kg
Description: as §1
as §2, with “pCi/kg.” for “pCi/kg. Blood samples were collected from all Group 1 animals at approximately 0.083, 0.25, 0.5, 1, 2, 4, 8, 12, 24, 48, and 72 hours post-dose. Urine and feces were collected from all Group 2 animals periodically through 168 hours post-dose.”

[7] = Plasma pharmacokinetics of radioactivity, oral dose; type: in vivo; conditions: single oral (gavage) dose 75 mg/kg, rats
[8] = Excretion mass balance, oral dose; type: in vivo; conditions: oral (gavage) 75 mg/kg, rats
[9] = Tissue distribution by quantitative whole body autoradiography, oral dose; type: in vivo, male Sprague Dawley rats
[10] = calculated using AUClast, oral 75 mg/kg

CC(C)CCC[C@@H](C)[C@H]1CC[C@H]2[C@@H]3CC=C4C[C@@H](O)CC[C@]4(C)[C@H]3CC[C@]12C [Xol, Cholesterol]
effect on enzymatic activities [1]: did not significantly affect

desmosterol sulfate
detection in plasma or feces samples ([2]; radiolabeled): not found

C[C@H](CCCC(C)(C)O)[C@H]1CC[C@H]2[C@@H]3CC=C4[14CH2][C@@H](OS(=O)(=O)O)CC[C@]4(C)[C@H]3CC[C@]12C [[4-^14C]-25HC3S]
terminal elimination phase T1/2, plasma ([3]; PK phase): 26.6 h
mean plasma C0 ([3]; total radioactivity): 25,900 ng-equiv./g
plasma AUClast ([3]; total radioactivity): 27,900 h*ng-equiv./g
dose recovered in urine, feces, and cage rinse [4]: approximately 100.2%
recovered radioactivity in feces [4]: 83.0%
tissue:plasma ratio, liver ([5]; calculated using AUClast): 11.4
tissue:plasma ratio, small intestine (wall) ([5]; calculated using AUClast): 7.44
plasma:whole blood AUClast ratio ([5]; Group 3): 0.79
whole blood AUClast ([5]; Group 3): 25,200 h*ng-equiv./g
maximum plasma concentration ([5]; QWBA phase): 12,400 ng-equiv./g
AUClast in the liver ([5]; derived radioactivity): ≤ 364,000 h-ng/g
tissue distribution of compound and/or metabolites ([5]; detected in all tissues except the eye (lens)): broadly distributed
plasma or whole blood concentrations versus Sprague Dawley rats ([6]; first 168 hours post-dose): no substantial difference
binding to pigmented or non-pigmented skin or the uveal tract [6]: no difference
plasma AUClast [7]: 96,400 h-ng equiv./g
terminal elimination phase T1/2 [7]: 27.3 h
dose recovered in urine, feces, and cage rinse [8]: approximately 94.5%
recovered radioactivity in feces [8]: 94.2%
tissue:plasma ratio, adrenal gland [9, 10]: 6.64
tissue:plasma ratio, liver [9, 10]: 6.96
tissue:plasma ratio, small intestine (wall) [9, 10]: 15.4
Skin, thymus, prostate, and pituitary tissue concentrations ([9]; oral 75 mg/kg): < 3000 ng equiv./g
tissue Tmax ([9]; oral 75 mg/kg): ≤ 6 hours post-dose
tissue distribution of compound and/or metabolites ([9]; oral 75 mg/kg, detected in all tissues except the eye (lens)): broadly distributed
plasma:whole blood AUClast ratio ([9]; oral (gavage) 75 mg/kg): 1.12
whole blood AUClast ([9]; oral (gavage) 75 mg/kg): 127,000 h-ng equiv./g

CC(C)CCC[C@@H](C)[C@H]1CC[C@H]2[C@@H]3CC=C4C[C@@H](OS(=O)(=O)O)CC[C@]4(C)[C@H]3CC[C@]12C [Xol3S, 5-cholesten-3β-ol, 3-sulfate]
effect on enzymatic activities [1]: did not significantly affect

C[C@H](CCCC(C)(C)O)[C@H]1CC[C@H]2[C@@H]3CC=C4C[C@@H](O)CC[C@]4(C)[C@H]3CC[C@]12C [25HC, 25-Hydroxycholesterol, reference compound]
amount in feces, % of total dose ([2]; 0 to 168 hours post-dose pools): 1.9 % of total dose
relative observed intensity (ROI) in plasma ([2]; 2 hour post-dose plasma): 37%

C[C@@H](CO)CCC[C@@H](C)[C@H]1CC[C@H]2[C@@H]3CC=C4C[C@@H](O)CC[C@]4(C)[C@H]3CC[C@]12C [27HC, 27-Hydroxycholesterol]
effect on other enzymes (than DNMT-1) [1]: no effect
